Data reported in patent publication US8741907B2, “Alkyl-substituted pyrazolopyrimidines” (Boehringer Ingelheim International GmbH, priority 2002, dated 2014).

Columns and labels:
[1] = biological target: PDE2A (Homo sapiens (Human), UniProt O00408); assay: PDE inhibition, recombinant PDE2A; assay type: biochemical
Source text: (§1) Recombinant PDE1C (GenBank/EMBL Accession Number: NM_005020, Loughney et al. J. Biol. Chem. 1996 271, 796-806), PDE2A (GenBank/EMBL Accession Number: NM_002599, Rosman et al. Gene 1997 191, 89-95), PDE3B (GenBank/EMBL Accession Number: NM_000922, Miki et al. Genomics 1996, 36, 476-485), PDE4B (GenBank/EMBL Accession Number: NM_002600, Obernolte et al. Gene. 1993, 129, 239-247), PDE5A (GenBank/EMBL Accession Number: NM_001083, Loughney et al. Gene 1998, 216, 139-147), PDE7B (GenBank/EMBL Accession Number: NM_018945, Hetman et al. Proc. Natl. Acad. Sci. U.S.A. 2000, 97, 472-476), PDE8A (GenBank/EMBL Accession Number. AF—056490, Fisher et al. Biochem. Biophys. Res. Commun. […]
(§2) The test substances are dissolved in 100% DMSO and serially diluted to determine their in vitro effect on PDE 9A. […] The plates are then measured for 30 s per well in a Microbeta scintillation counter (Wallac Inc., Atlanta, Ga.). IC50 values are determined from the graphical plot of the substance concentration versus the percentage inhibition.
(§3) The in vitro effect of test substances on recombinant PDE3B, PDE4B, PDE7B, PDE8A, PDE10A and PDE11A is determined in accordance with the assay protocol described above for PDE9A with the following adaptations: [5′,8-^3H] adenosine 3′,5′-cyclic phosphate (1 μCi/μL; Amersham Pharmacia Biotech., Piscataway, N.J.) is used as substrate. […]

[2] = biological target: PDE8A (Homo sapiens (Human), UniProt O60658); assay: PDE inhibition, recombinant PDE8A; assay type: biochemical
Sequence of PDE8A (O60658 117-829): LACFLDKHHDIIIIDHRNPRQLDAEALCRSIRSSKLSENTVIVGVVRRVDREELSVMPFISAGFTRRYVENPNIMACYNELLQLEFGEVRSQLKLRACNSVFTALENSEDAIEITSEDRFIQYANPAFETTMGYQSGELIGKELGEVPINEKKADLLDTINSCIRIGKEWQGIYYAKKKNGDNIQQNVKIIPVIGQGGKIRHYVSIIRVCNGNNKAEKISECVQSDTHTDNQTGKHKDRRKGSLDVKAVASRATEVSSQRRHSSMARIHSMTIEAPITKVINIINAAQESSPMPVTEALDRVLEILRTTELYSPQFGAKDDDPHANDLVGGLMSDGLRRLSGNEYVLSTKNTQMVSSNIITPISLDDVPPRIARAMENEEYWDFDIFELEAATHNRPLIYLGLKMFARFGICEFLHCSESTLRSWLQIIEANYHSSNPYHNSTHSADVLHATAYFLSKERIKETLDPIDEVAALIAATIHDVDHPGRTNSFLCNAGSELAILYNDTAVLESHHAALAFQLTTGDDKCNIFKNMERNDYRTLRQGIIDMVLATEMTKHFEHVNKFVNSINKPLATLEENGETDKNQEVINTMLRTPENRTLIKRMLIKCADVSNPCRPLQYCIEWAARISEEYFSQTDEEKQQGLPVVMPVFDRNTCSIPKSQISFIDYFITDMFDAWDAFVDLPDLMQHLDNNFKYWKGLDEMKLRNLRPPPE
Source text: as §1, §2, §3

[3] = biological target: PDE7B (Homo sapiens (Human), UniProt Q9NP56); assay: PDE inhibition, recombinant PDE7B; assay type: biochemical
Sequence of PDE7B (Q9NP56 whole entry): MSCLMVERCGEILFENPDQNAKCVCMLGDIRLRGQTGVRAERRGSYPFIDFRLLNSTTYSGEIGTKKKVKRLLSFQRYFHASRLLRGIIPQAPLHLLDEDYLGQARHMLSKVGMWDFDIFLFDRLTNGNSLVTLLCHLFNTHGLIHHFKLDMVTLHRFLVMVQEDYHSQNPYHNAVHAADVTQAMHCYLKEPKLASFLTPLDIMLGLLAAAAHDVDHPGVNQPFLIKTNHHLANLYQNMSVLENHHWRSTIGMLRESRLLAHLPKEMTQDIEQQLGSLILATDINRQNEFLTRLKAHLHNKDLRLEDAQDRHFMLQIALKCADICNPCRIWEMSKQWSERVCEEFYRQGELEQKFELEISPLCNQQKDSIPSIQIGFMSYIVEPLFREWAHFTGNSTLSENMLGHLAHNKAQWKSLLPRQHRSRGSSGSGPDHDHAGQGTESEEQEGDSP
Source text: as §1, §2, §3

[4] = biological target: PDE10A (Homo sapiens (Human), UniProt Q9Y233); assay: PDE inhibition, recombinant PDE10A; assay type: biochemical
Sequence of PDE10A (Q9Y233 other isoform, or with tags, fused parts or gaps): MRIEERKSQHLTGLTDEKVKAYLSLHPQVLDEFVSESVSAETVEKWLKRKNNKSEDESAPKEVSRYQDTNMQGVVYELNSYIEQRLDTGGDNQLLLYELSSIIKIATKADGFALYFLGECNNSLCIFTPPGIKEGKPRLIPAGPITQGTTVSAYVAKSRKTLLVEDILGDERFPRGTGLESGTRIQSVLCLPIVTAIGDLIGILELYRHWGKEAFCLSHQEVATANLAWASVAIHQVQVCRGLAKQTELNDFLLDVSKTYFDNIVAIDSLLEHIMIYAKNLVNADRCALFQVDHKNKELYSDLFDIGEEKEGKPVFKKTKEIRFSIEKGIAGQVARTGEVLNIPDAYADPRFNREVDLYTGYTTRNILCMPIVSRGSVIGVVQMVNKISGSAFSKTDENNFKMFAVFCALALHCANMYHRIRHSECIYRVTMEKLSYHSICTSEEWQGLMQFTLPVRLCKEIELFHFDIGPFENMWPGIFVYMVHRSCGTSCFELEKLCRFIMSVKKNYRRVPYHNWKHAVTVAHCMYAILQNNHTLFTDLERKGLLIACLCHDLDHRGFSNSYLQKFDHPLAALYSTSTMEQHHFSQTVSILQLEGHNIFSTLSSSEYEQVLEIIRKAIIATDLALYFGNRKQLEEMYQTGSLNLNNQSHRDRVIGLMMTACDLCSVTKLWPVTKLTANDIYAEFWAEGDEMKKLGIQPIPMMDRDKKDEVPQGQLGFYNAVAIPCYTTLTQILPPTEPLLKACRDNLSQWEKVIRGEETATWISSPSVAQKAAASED
Source text: as §1, §2, §3

[5] = biological target: T1, PDE9A (Homo sapiens (Human), UniProt O76083); assay: PDE inhibition, recombinant PDE9A; assay type: biochemical
T1 sequence (O76083 whole entry): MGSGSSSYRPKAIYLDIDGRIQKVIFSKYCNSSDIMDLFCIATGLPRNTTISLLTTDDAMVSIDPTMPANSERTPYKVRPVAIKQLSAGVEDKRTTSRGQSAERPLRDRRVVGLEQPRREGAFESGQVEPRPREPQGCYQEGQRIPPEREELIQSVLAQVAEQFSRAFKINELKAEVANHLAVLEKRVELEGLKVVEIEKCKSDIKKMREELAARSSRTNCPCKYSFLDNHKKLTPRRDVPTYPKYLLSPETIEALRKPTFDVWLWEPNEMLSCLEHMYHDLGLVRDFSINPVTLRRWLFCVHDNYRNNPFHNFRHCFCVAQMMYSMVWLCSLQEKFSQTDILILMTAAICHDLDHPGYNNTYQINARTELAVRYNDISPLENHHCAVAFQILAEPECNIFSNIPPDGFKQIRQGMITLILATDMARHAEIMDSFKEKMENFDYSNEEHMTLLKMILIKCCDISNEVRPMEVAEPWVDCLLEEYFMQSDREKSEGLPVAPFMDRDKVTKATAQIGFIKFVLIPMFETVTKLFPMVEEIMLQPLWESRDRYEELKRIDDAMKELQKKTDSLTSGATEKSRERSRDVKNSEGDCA
Method: (§4) The test substances are dissolved in 100% DMSO and serially diluted to determine their in vitro effect on PDE 9A. […] 2 μL portions of the diluted substance solutions are introduced into the wells of microtiter plates (Isoplate; Wallac Inc., Atlanta, Ga.). Then 50 μL of a dilution of the PDE9A preparation described above are added. […] The substrate, [8-^3H] guanosine 3′,5′-cyclic phosphate (1 μCi/μL; Amersham Pharmacia Biotech., Piscataway, N.J.) is diluted 1:2000 with assay buffer (50 mM Tris/HCl pH 7.5, 8.3 mM MgCl2, 1.7 mM EDTA) to a concentration of 0.0005 μCi/μL. The enzyme reaction is finally started by adding 50 μL (0.025 μCi) of the diluted substrate. […] Immediately thereafter, 25 μL of a suspension containing 18 mg/mL Yttrium Scintillation Proximity Beads (Amersham Pharmacia Biotech., Piscataway, N.J.) are added. The microliter plates are sealed with a film and left to stand at room temperature for 60 min. The plates are then measured for 30 s per well in a Microbeta scintillation counter (Wallac Inc., Atlanta, Ga.). IC50 values are determined from the graphical plot of the substance concentration versus the percentage inhibition.

[6] = biological target: PDE1C (Homo sapiens (Human), UniProt Q14123); assay: PDE inhibition, recombinant PDE1C; assay type: biochemical
[7] = biological target: PDE5A (Homo sapiens (Human), UniProt O76074); assay: PDE inhibition, recombinant PDE5A; assay type: biochemical
Source text: as §1, §2, §3

[8] = biological target: PDE4B (Homo sapiens, UniProt Q07343); assay: PDE inhibition, recombinant PDE4B; assay type: biochemical
Sequence of PDE4B (Q07343 whole entry, looked up): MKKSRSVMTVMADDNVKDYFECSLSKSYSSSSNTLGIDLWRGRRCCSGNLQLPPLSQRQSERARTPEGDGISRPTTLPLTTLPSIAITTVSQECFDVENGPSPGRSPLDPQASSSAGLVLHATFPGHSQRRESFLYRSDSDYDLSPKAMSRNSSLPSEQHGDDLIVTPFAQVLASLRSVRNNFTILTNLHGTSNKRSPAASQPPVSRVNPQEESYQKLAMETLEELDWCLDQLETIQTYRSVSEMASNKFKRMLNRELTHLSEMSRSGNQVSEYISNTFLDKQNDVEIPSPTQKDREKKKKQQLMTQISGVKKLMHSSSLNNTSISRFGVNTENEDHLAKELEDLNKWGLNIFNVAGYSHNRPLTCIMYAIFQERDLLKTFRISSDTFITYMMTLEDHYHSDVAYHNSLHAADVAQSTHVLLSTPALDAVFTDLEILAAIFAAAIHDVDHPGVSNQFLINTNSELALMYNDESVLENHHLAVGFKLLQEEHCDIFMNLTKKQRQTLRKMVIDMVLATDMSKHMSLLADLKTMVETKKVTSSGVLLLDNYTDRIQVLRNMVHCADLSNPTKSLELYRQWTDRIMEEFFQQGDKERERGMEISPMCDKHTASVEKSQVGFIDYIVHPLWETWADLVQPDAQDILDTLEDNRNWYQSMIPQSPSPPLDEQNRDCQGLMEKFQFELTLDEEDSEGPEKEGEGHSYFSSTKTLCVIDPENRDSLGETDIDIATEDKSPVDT
Method: as §4, with “The microliter plates are sealed with a film and left to stand at room temperature for 60 min.” left out
The in vitro effect of test substances on recombinant PDE3B, PDE4B, PDE7B, PDE8A, PDE10A and PDE11A is determined in accordance with the assay protocol described above for PDE9A with the following adaptations: [5′,8-^3H] adenosine 3′,5′-cyclic phosphate (1 μCi/μL; Amersham Pharmacia Biotech., Piscataway, N.J.) is used as substrate.

[9] = biological target: PDE3B (Homo sapiens (Human), UniProt Q13370); assay: PDE inhibition, recombinant PDE3B; assay type: biochemical
Source text: as §1, §2, §3

[10] = biological target: Murine PDE9A (Mus musculus (Mouse), UniProt O70628); details: concentrations below 200 μM; cited from earlier work
Sequence of Murine PDE9A (O70628 whole entry): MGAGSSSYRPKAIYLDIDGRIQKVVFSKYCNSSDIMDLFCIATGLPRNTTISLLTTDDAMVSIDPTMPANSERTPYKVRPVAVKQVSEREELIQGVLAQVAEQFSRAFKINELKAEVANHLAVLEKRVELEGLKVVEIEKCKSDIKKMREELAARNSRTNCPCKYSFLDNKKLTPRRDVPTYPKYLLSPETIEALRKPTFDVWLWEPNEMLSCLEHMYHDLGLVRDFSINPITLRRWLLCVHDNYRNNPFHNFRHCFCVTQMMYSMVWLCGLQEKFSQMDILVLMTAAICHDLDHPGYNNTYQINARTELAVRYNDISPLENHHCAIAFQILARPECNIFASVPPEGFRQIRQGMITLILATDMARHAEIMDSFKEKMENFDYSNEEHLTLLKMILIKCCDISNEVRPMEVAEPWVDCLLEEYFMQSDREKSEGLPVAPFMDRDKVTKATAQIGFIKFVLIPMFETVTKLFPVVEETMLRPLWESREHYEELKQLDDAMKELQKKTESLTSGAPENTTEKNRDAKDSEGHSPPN

[11] = biological target: T1, PDE9A; details: concentrations of up to 100 μM; cited from earlier work

Sequence of PDE2A (O00408 whole entry): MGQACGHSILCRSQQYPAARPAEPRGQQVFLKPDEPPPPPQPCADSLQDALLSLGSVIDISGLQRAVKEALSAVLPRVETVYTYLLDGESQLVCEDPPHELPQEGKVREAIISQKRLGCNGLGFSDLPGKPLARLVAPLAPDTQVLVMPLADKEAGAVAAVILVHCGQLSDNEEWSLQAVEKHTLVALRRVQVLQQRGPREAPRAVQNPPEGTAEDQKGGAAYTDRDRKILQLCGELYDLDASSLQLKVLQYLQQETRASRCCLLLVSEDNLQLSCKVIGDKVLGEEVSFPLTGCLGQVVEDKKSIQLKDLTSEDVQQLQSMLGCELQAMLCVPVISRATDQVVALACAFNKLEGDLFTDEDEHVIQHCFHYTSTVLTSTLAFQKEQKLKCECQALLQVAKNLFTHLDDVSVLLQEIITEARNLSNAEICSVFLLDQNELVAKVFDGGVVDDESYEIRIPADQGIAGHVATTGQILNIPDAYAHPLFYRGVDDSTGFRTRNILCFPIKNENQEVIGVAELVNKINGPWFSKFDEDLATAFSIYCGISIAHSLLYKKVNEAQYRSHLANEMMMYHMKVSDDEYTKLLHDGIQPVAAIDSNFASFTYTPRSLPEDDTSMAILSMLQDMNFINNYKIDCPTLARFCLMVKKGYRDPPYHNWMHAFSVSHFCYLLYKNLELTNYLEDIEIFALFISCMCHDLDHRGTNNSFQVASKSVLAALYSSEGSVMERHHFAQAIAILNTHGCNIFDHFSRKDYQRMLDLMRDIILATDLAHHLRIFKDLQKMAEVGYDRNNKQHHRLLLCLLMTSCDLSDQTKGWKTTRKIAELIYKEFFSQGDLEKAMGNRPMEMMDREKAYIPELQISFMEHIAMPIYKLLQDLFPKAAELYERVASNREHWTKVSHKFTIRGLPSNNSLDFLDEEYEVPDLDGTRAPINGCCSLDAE

| Compound | melting point [°C] | further results |
| --- | --- | --- |
| O=c1[nH]c(CC2CCCCC2)nc2c1cnn2C1CCCC1 | 147 | – |
| CCC(CC)n1ncc2c(=O)[nH]c(CC3C=CCC3)nc21 (stereo not shown) | 128 | – |
| O=c1[nH]c(CC2CCCO2)nc2c1cnn2C1CCCC1 (stereo not shown) | 179 | – |
| CCC(C)Cc1nc2c(cnn2C2CCCC2)c(=O)[nH]1 (stereo not shown) | 86 | – |
| O=c1[nH]c(CC2C=CCC2)nc2c1cnn2C1CCCC1 (stereo not shown) | 166 | – |
| O=c1[nH]c(CCCO)nc2c1cnn2C1CCCC1 [Example 2, 1-Cyclopentyl-6-(3-hydroxypropyl)-1,5-dihydro-4H-pyrazolo[3,4-d]pyrimidin-4-one] | 138 | – |
| CCC(CC)n1ncc2c(=O)[nH]c(CC3CCCCC3)nc21 [Example 3, 6-(Cyclohexylmethyl)-1-(1-ethylpropyl)-1,5-dihydro-4H-pyrazolo[3,4-d]pyrimidin-4-one] | 122 | IC50 [1]: > 4 µM; IC50 [2]: > 4 µM; IC50 [3]: > 4 µM; IC50 [4]: > 4 µM; IC50 [5]: 0.11 µM; IC50 [6]: 0.72 µM; IC50 [7]: > 4 µM; IC50 [8]: > 4 µM; IC50 [9]: > 4 µM |
| CC(C)CCc1nc2c(cnn2C2CCCC2)c(=O)[nH]1 [Example 5, 1-Cyclopentyl-6-(3-methylbutyl)-1,5-dihydro-4H-pyrazolo[3,4-d]pyrimidin-4-one] | 133 | – |
| CCC(C)Cc1nc2c(cnn2C(CC)CC)c(=O)[nH]1 (stereo not shown) [Example 7, 1-(1-Ethylpropyl)-6-(2-methylbutyl)-1,5-dihydro-4H-pyrazolo[3,4-d]pyrimidin-4-one] | 121 | – |
| CCC(CC)n1ncc2c(=O)[nH]c(CCC(C)C)nc21 [Example 8, 1-(1-Ethylpropyl)-6-isopentyl-1,5-dihydro-4H-pyrazolo[3,4-d]pyrimidin-4-one] | 127 | – |
| CCC(CC)n1ncc2c(=O)[nH]c(CC(C)C)nc21 [Example 9, 1-(1-Ethylpropyl)-6-isobutyl-1,5-dihydro-4H-pyrazolo[3,4-d]pyrimidin-4-one] | 161 | – |
| CCCc1nc2c(cnn2C(CC)CC)c(=O)[nH]1 [Example 10, 1-(1-Ethylpropyl)-6-propyl-1,5-dihydro-4H-pyrazolo[3,4-d]pyrimidin-4-one] | 127 | – |
| CCC(CC)n1ncc2c(=O)[nH]c(CC3CCCO3)nc21 (stereo not shown) [Example 11, 1-(1-Ethylpropyl)-6-(tetrahydro-2-furanylmethyl)-1,5-dihydro-4H-pyrazolo[3,4-d]-pyrimidin-4-one] | 136 | – |
| CCOC(=O)CCc1nc2c(cnn2C(CC)CC)c(=O)[nH]1 [Example 14, Ethyl 4-[1-(1-ethylpropyl)-4-oxo-4,5-dihydro-1H-pyrazolo[3,4-d]pyrimidin-6-yl]-propionate] | 118 | – |
| CC1CCC(Cc2nc3c(cnn3C3CCCC3)c(=O)[nH]2)CC1 (stereo not shown) [Example 15, 1-Cyclopentyl-6-[(4-methylcyclohexyl)methyl]-1,5-dihydro-4H-pyrazolo[3,4-d]-pyrimidin-4-one] | 126 | – |
| CCOC(=O)CCc1nc2c(cnn2C2CCCC2)c(=O)[nH]1 [Example 18, Ethyl 4-[1-cyclopentyl-4-oxo-4,5-dihydro-1H-pyrazolo[3,4-d]pyrimidin-6-yl]-propionate] | 185 | – |
| CCC(CC)n1ncc2c(=O)[nH]c(CC3CCCC3)nc21 [Example 21, 6-(Cyclopentylmethyl)-1-(1-ethylpropyl)-1,5-dihydro-4H-pyrazolo[3,4-d]pyrimidin-4-one] | 156 | – |
| CCC(CC)n1ncc2c(=O)[nH]c(CC(C)C(F)(F)F)nc21 (stereo not shown) [Example 22, 1-(1-Ethylpropyl)-6-(3,3,3-trifluoro-2-methylpropyl)-1,5-dihydro-4H-pyrazolo[3,4-d]pyrimidin-4-one] | 156 | – |
| CC(Cc1nc2c(cnn2C2CCCC2)c(=O)[nH]1)C(F)(F)F (stereo not shown) [Example 23, 1-(1-Cyclopentyl)-6-(3,3,3-trifluoro-2-methylpropyl)-1,5-dihydro-4H-pyrazolo[3,4-d]pyrimidin-4-one] | 166 | – |
| CC(C)Cn1c(=O)n(C)c(=O)c2[nH]cnc21 [IBMX] | – | inhibition [10]: not inhibited; inhibition on the isolated enzyme [11]: no inhibition |
| CC(=O)Nc1ccc(-c2c[nH]c(=O)cn2)cc1 [SKF94120] | – | inhibition on the isolated enzyme [11]: no inhibition |
| OCCN(CCO)c1nc(N2CCCCC2)c2nc(N(CCO)CCO)nc(N3CCCCC3)c2n1 [dipyridamole] | – | inhibition on the isolated enzyme [11]: no inhibition |
| COc1ccc(C2CNC(=O)C2)cc1OC1CCCC1 (stereo not shown) [rolipram] | – | inhibition on the isolated enzyme [11]: no inhibition |
| CCOC(=O)C1=C[C@]2(CC)CCCN3CCc4c(n1c1ccccc41)[C@@H]32 [vinpocetine] | – | inhibition on the isolated enzyme [11]: no inhibition |
